Experimental data reported in patent US20040259913A1, “Diamide invertebrate pest control agents” (priority 2002, published 2004).

System: beet armyworm (Spodoptera exigua)
Test: Test C: control of beet armyworm on corn (maize) plant, foliar spray
Format: in vivo
Settings: sprayed at 50 ppm; corn (maize) plant pre-infested with 10-15 1-day-old larvae; visually rated as in Test A
Procedure: Test compounds were formulated using a solution containing 10% acetone, 90% water and 300 ppm X-77® Spreader Lo-Foam Formula non-ionic surfactant containing alkylarylpolyoxyethylene, free fatty acids, glycols and isopropanol (Loveland Industries, Inc.), unless otherwise indicated. The formulated compounds were applied in 1 mL of liquid through a SUJ2 atomizer nozzle with ⅛ JJ custom body (Spraying Systems Co,) positioned 1.27 cm (0.5 inches) above the top of each test unit. All experimental compounds in this screen were sprayed at 250 ppm and replicated three times. After spraying of the formulated test compound, each test unit was allowed to dry for 1 hour and then a black, screened cap was placed on top. The test units were held for 6 days in a growth chamber at 25° C. and 70% relative humidity. Plant feeding damage was then visually assessed. For evaluating control of beet armyworm (Spodoptera exigua) the test unit consisted of a small open container with a 4-5-day-old corn (maize) plant inside. This was pre-infested with 10-15 1-day-old larvae on a piece of insect diet by use of a core sampler as described for Test A. Test compounds were formulated and sprayed at 50 ppm as described for Test A. The applications were replicated three times. After spraying, the test units were maintained in a growth chamber and then visually rated as described for Test A.

CC1=C(NC(=O)c2cc(C(F)(F)F)nn2-c2ncccc2Cl)C(C(=O)NC(C)C)CS1 (stereo not shown) [Compound 1, 1-(3-Chloro-2-pyridinyl)-N-[4,5-dihydro-2-methyl-4-[[(1-methylethyl)amino]carbonyl]-3-thienyl]-3-(trifluoromethyl)-1H-pyrazole-5-carboxamide]
feeding damage (very good levels of plant protection): ≤ 20%
